Reference: patent US9932637B2, “Genetic polymorphisms associated with cardiovascular disorders and drug response, methods of detection and uses thereof” (CELERA CORPORATION, priority 2003, dated 2018)

Tested on: patients with prior myocardial infarction (CARE study)
Assay: CARE: association of SNPs with pravastatin treatment in cardiovascular events prevention (logistic regression, odds ratio pravastatin vs placebo by genotype; Table 8)
Assay type: in vivo, human
From the text: In order to identify genetic markers associated with acute coronary events (e.g. MI, stroke, unstable angina, congestive heart failure, etc.) or response to statin treatment for the prevention of coronary events, samples from the Cholesterol and Recurrent Events (CARE) study (a randomized multicentral double-blinded trial on secondary prevention of acute coronary events with pravastatin) (Sacks et al., 1991, Am. J. Cardiol. 68: 1436-1446) were genotyped. A well-documented myocardial infarction (MI) was one of the enrollment criteria for entry into the CARE study. Patients were enrolled in the CARE trial from 80 participating study centers. […] Patients were randomized to receive either 40 mg of pravastatin once daily or a matching placebo. The primary endpoint of the trial was death from coronary heart disease and the median duration of follow-up was 5.0 years (range, 4.0 to 6.2 years). […] Secondary endpoints of other related cardiovascular or metabolic disease events, and changes in clinical variables were also recorded in pravastatin-treated and placebo groups. All individuals included in the study had signed a written informed consent form and the study protocol was approved by the respective Institutional Review Boards (IRBs).
For genotyping SNPs in CARE patient samples, DNA was extracted from blood samples using conventional DNA extraction methods such as the QIA-amp kit from Qiagen. Genotypes were obtained on an ABI PRISM® 7900HT Sequence Detection PCR system (Applied Biosystems, Foster City, Calif.) by kinetic allele-specific PCR, similar to the method described by Germer et al. (Germer S., Holland M. J., Higuchi R. 2000, Genome Res. 10: 258-266).
Statistical analysis for association of SNPs with pravastatin treatment in cardiovascular events prevention (Table 8) was carried out using an overall logistic regression model that included an intercept, a parameter for the effect of a genotype containing two rare alleles versus a genotype containing no rare alleles, a parameter for the effect of a genotype containing one rare allele versus a genotype containing no rare alleles, a parameter for the effect of use of pravastatin versus the use of placebo, and parameters for the interaction effects between SNP genotypes and pravastatin use. The test of the overall model is a chi-square test with two degrees of freedom for analyses containing all three genotypes, and one degree of freedom for analyses containing two genotypes.
Effect sizes were estimated through odds ratios (pravastatin group versus placebo) for carriers of each genotype (groups of 0, 1, and 2 minor allele carriers). The effect was considered to be significant if p-value for testing whether any of the interactions between SNP genotypes and pravastatin use were <0.05. […] Odds ratios less than one indicate that the specific SNP allele has a protective effect and odds ratios greater than one indicate that the specific SNP allele has an adverse effect.

[1] = IL9 hCV3275199, All Patients, 0 Rare Alleles, Prava arm
[2] = IL9 hCV3275199, All Patients, 1 Rare Allele, Prava arm
[3] = IL9 hCV3275199, All Patients, 2 Rare Alleles, Prava arm
[4] = IL12A hCV16053900, All Patients, 0 Rare Alleles, Prava arm
[5] = IL12A hCV16053900, All Patients, 1 Rare Allele, Prava arm
[6] = IL12A hCV16053900, All Patients, 2 Rare Alleles, Prava arm
[7] = KLK14 hCV16044337, All Patients, 0 Rare Alleles, Prava arm
[8] = KLK14 hCV16044337, All Patients, 1 Rare Allele, Prava arm
[9] = KLK14 hCV16044337, All Patients, 2 Rare Alleles, Prava arm
[10] = LAMA5 hCV25629492, All Patients, 0 Rare Alleles, Prava arm
[11] = LAMA5 hCV25629492, All Patients, 1 Rare Allele, Prava arm
[12] = LAMA5 hCV25629492, All Patients, 2 Rare Alleles, Prava arm
[13] = LRP8 hCV190754, All Patients, Hosp. for Unstable Angina
[14] = MARK3 hCV25926771, All Patients, 0 Rare Alleles, Prava arm
[15] = MARK3 hCV25926771, All Patients, 1 Rare Allele, Prava arm
[16] = MJD hCV16189421, All Patients, 0 Rare Alleles, Prava arm

`CC[C@H](C)C(=O)O[C@H]1C[C@H](O)C=C2C=C[C@H](C)[C@H](CC[C@@H](O)C[C@@H](O)CC(=O)O)[C@H]21` [pravastatin] was tested, and the “Nonfatal MI (Probable/Definite), n/total (%)” value [1] was “(10.4%)”, the “Nonfatal MI (def & prob), n/total (%)” value [1] was “(9.8%)” and the “Fatal/Nonfatal MI (def & prob), n/total (%)” value (from here on “Fatal/Nonfatal MI … (%)”) [2] was “(6.0%)”. For the same compound, the “MI (Fatal/Nonfatal), n/total (%)” value [2] was “(6.0%)”, the “Nonfatal MI (Probable/Definite), n/total (%)” value [2] was “(5.7%)” and the “Nonfatal MI (def & prob), n/total (%)” value [2] was “(5.7%)”. The “Fatal/Nonfatal MI … (%)” value [3] was “(6.1%)”, the “MI (Fatal/Nonfatal), n/total (%)” value [3] was “(6.1%)” and the “Nonfatal MI (Probable/Definite), n/total (%)” value [3] was “(6.1%)”. For the same compound, the “Nonfatal MI (def & prob), n/total (%)” value [3] was “(6.1%)”, the “Coronary Artery Bypass Graft, n/total (%)” value [4] was “(4.9%)” and the “Coronary Artery Bypass or Revascularization, n/total (%)” value [4] was “(11.0%)”. For the same compound, the “Coronary Artery Bypass Graft, n/total (%)” value [5] was “(8.9%)”, the “Coronary Artery Bypass or Revascularization, n/total (%)” value [5] was “(16.2%)” and the “Coronary Artery Bypass Graft, n/total (%)” value [6] was “(7.2%)”. The “Coronary Artery Bypass or Revascularization, n/total (%)” value [6] was “(14.8%)”, the “Coronary Artery Bypass Graft, n/total (%)” value [7] was “(8.7%)” and the “Definite Nonfatal MI, n/total (%)” value [7] was “(7.1%)”. For the same compound, the “Fatal CHD/Definite Nonfatal MI, n/total (%)” value [7] was “(9.5%)”, the “Fatal/Nonfatal MI … (%)” value [7] was “(9.8%)” and the “MI (Fatal/Nonfatal), n/total (%)” value [7] was “(10.1%)”. For the same compound, the “Nonfatal MI (Probable/Definite), n/total (%)” value [7] was “(9.7%)”, the “Nonfatal MI (def & prob), n/total (%)” value [7] was “(9.1%)” and the “Coronary Artery Bypass Graft, n/total (%)” value [8] was “(6.2%)”. The “Definite Nonfatal MI, n/total (%)” value [8] was “(7.2%)”, the “Fatal CHD/Definite Nonfatal MI, n/total (%)” value [8] was “(9.9%)” and the “Fatal/Nonfatal MI … (%)” value [8] was “(10.0%)”. The “MI (Fatal/Nonfatal), n/total (%)” value [8] was “(10.2%)”, the “Nonfatal MI (Probable/Definite), n/total (%)” value [8] was “(9.4%)” and the “Nonfatal MI (def & prob), n/total (%)” value [8] was “(9.1%)”. For the same compound, the “Coronary Artery Bypass Graft, n/total (%)” value [9] was “(5.6%)”, the “Definite Nonfatal MI, n/total (%)” value [9] was “(4.4%)” and the “Fatal CHD/Definite Nonfatal MI, n/total (%)” value [9] was “(5.6%)”. For the same compound, the “Fatal/Nonfatal MI … (%)” value [9] was “(6.9%)”, the “MI (Fatal/Nonfatal), n/total (%)” value [9] was “(6.9%)” and the “Nonfatal MI (Probable/Definite), n/total (%)” value [9] was “(6.3%)”. For the same compound, the “Nonfatal MI (def & prob), n/total (%)” value [9] was “(6.3%)”, the “Definite Nonfatal MI, n/total (%)” value [10] was “(8.8%)” and the “Fatal/Nonfatal MI … (%)” value [10] was “(12.1%)”. For the same compound, the “Nonfatal MI (def & prob), n/total (%)” value [10] was “(11.3%)”, the “Definite Nonfatal MI, n/total (%)” value [11] was “(5.4%)” and the “Fatal/Nonfatal MI … (%)” value [11] was “(7.7%)”. For the same compound, the “Nonfatal MI (def & prob), n/total (%)” value [11] was “(7.4%)”, the “Definite Nonfatal MI, n/total (%)” value [12] was “(4.1%)” and the “Fatal/Nonfatal MI … (%)” value [12] was “(7.7%)”. The “Nonfatal MI (def & prob), n/total (%)” value [12] was “(5.4%)”, the “Hosp. for Unstable Angina, n/total (%)” value (LRP8 hCV190754, All Patients, 0 Rare Alleles, Prava, n/total 98/560) was “(17.5%)” and the “Hosp. for Unstable Angina, n/total (%)” value (LRP8 hCV190754, All Patients, 1 Rare Allele, Prava, n/total 100/712) was “(14.0%)”. The “Hosp. for Unstable Angina, n/total (%)” value (LRP8 hCV190754, All Patients, 2 Rare Alleles, Prava, n/total 32/244) was “(13.1%)”, the “Prava vs. Placebo Odds Ratio, 0 Rare Alleles” value [13] was 1.21 and the “Prava vs. Placebo Odds Ratio, 1 Rare Alleles” value [13] was 0.70. The “Prava vs. Placebo Odds Ratio, 2 Rare Alleles” value [13] was 0.54, the “Definite Nonfatal MI, n/total (%)” value [14] was “(6.7%)” and the “Fatal CHD/Definite Nonfatal MI, n/total (%)” value [14] was “(9.9%)”. The “Definite Nonfatal MI, n/total (%)” value [15] was “(7.0%)”, the “Fatal CHD/Definite Nonfatal MI, n/total (%)” value [15] was “(9.1%)” and the “Fatal/Nonfatal MI … (%)” value [16] was “(8.4%)”. The “Hosp. for Unstable Angina, n/total (%)” value [16] was “(14.4%)”.
